Results as given in patent publication US9834541B2, “2-aminopyridine compounds” (Merck Patent GmbH, priority 2012, dated 2017).

Experiments:
[1] = CLint (intrinsic clearance) assay, liver microsomal incubation; format: in vitro ADME, human; conditions: liver microsomes, pH 7.4; human hepatic microsomes, 0.5 mg/mL protein, class symbols
Description: Also shown is the human hepatic microsomal intrinsic clearance (CLint), whereby the following classification is used:
2. CLint (Intrinsic Clearance) Assay
A Tecan Genesis workstation (RWS ASY 150/8) was used to perform the microsomal incubations. Analysis was carried out using a Waters ACQUITY UPLC system coupled to an ABSciex API3000 mass spectrometer. Data analysis was performed using Assay Explorer (Symyx).
Column: Acquity UPLC BEH C18, 2.1×50 mm, 1.7 um (Waters)
Mobile phases: • A=0.1% formic acid in water • B=acetonitrile
Column temperature: 50° C.
0.1 M potassium phosphate buffer pH 7.4 containing 1 mM MgCl2
15 mM NADPH in phosphate buffer
5.0 mg protein/mL liver microsomes in phosphate buffer
Each experiment consists of 12 test and 2 reference compounds. The reference compounds are incubated as a cocktail.
Dilution of test compounds was done in 2 steps from a 10 mM DMSO stock solution. First 4 μL stock solution was added to 196 μL of 20% DMSO in potassium phosphate buffer pH 7.4. In a second step 10 μL of the first dilution were added to 1890 μL potassium phosphate buffer and 100 μL internal standard solution to a final concentration of […].
100 μL of the final compound dilution were aliquoted into a 96 deep well plate. 12.5 μL liver microsomes were added to each well (0.5 mg/mL final protein concentration) and the samples preincubated for 5 min at 37° C. and 800 rpm agitation.
After the preincubation, 250 μL cold acetonitrile were added to the 0 min samples to prevent a reaction. Following this, 12.5 μL NADPH solution were added to all wells to start the incubation, with the exception of the 0 min and 30 min controls without cofactor, where the NADPH was substituted for phosphate buffer.
The incubations were stopped after 5, 10, 20 and 30 min by adding 250 μL cold acetonitrile to the individual wells.
The quenched samples were then centrifuged at 4000 g for 1 h at 4° C. 100 μL of the supernatant were transferred into 96 well plates for analysis.
The metabolic stability of each compound was determined by measurement of the change in LC-MS/MS peak area over time. Assay Explorer software was used to automatically calculate the slope k of the decline. The intrinsic clearance (CLint) of each compound was then calculated according to the formula: CLint(μL/min/mg protein)=k1000/protein concentration.

Wnt pathway = experiment: Cellular assay for Wnt pathway activity, LS174T-shl-fLuc clone 5 (LS174T-L5) luciferase reporter assay; format: cell-based; conditions: Homo sapiens; LS174T TCF luciferase reporter cells, 24 hours incubation
Source text: 1. Cellular Assay for Wnt Pathway Activity LS174T-shl-fLuc Clone 5 (LS174T-L5) Reporter Assay Principle:
This assay is based on an in-vitro luciferase activity readout. The human colon cancer cell line, LS174T was transduced with a lentivirus encoding a short half-life luciferase (with a destabilised PEST sequence construct; construct F1756): 16×TCF/LEF transcription sites—short half life firefly luciferase on a basal pTA promoter—puromycin resistance gene on an EF-1-α promoter). This construct was made using the lentiviral base vector: pCDF1-MCS2-EF1-Puro from System Biosciences (cat. # CD110B-1). The luciferase has a T1/2 of about 60 minutes.
Stable luciferase-expressing clones were selected, using 1 μg/mL puromycin selection and the clones were bulked up.
Compounds that inhibit the Wnt pathway are predicted to inhibit the induction of luciferase transcription by TCF; this will result in reduced luciferase protein production and luciferase signal readout.
Compounds were tested for their Wnt pathway inhibitory activities using the described firefly luciferase reporter cell based assay. An LS174T luciferase reporter cell line was used which contained a T-Cell Factor (TCF) dependent gene promoter firefly luciferase construct.
Compounds, in concentrations from 30 μM to 1 nM, were incubated for 24 hours on the cells. Luciferase activities were determined using the Steady Glo Luciferase Assay System (Promega) and the TOPCOUNT microplate reader (Perkin Elmer). For analysis, the obtained data were normalized against the untreated vehicle control and fitted for determination of the IC50 values using the Excel Fit application of the Excel Software (Microsoft).

| SMILES | microsomal CLint at 0.8 μM [1] [µL/min/mg] | IC50 (Wnt pathway) [nM] |
| --- | --- | --- |
| Cn1cc(-c2ccc(-c3cnc(N)c(Cl)c3N3CC[C@H](C#N)[C@@H](O)C3)cc2)cn1 (racemic) [Compound 56, rac (3R,4R)-2′-Amino-3′-chloro-3-hydroxy-5′-[4-(1-methyl-1H-pyrazol-4-yl)-phenyl]-3,4,5,6-tetrahydro-2H-[1,4′] bipyridinyl-4-carbonitrile] | 10 to 50 | 531 |
| Nc1ncc(-c2ccccc2)c(N2CCC3(CCNC3=O)CC2)c1Cl [Compound 1, 8-(2-Amino-3-chloro-5-phenyl-pyridin-4-yl)-2,8-diaza-spiro[4.5]decan-1-one] | 10 to 50 | 670 |
| Nc1ncc(-c2ccc3c(N)n[nH]c3c2)c(N2CCC3(CCNC3=O)CC2)c1Cl [Compound 3, 8-[2-Amino-5-(3-amino-1H-indazol-6-yl)-3-chloro-pyridin-4-yl]-2,8-diaza-spiro[4.5] decan-1-one] | < 10 | 120 |
| Nc1ncc(-c2ccc3c(N)n[nH]c3c2)c(N2CCC3(CC2)NC(=O)NC3=O)c1Cl [Compound 5, 8-[2-Amino-5-(3-amino-1H-indazol-6-yl)-3-chloro-pyridin-4-yl]-1,3,8-triaza-spiro[4.5] decane-2,4-dione] | < 10 | 1500 |
| Nc1ncc(-c2ccc(-c3cnn(CCO)c3)cc2)c(N2CCC3(CC2)NC(=O)NC3=O)c1Cl [Compound 6, 8-(2-Amino-3-chloro-5-{4-[1-(2-hydroxy-ethyl)-1H-pyrazol-4-yl]-phenyl}-pyridin-4-yl)-1,3,8-triaza-spiro[4.5] decane-2,4-dione] | 10 to 50 | 390 |
| Nc1ncc(-c2ccc3c(c2)NC(=O)C3)c(N2CCC3(CCNC3=O)CC2)c1Cl [Compound 7, 6-(6-Amino-5-chloro-4-(1-oxo-2,8-diazaspiro[4.5]decan-8-yl)pyridin-3-yl)indolin-2-one] | 10 to 50 | 63 |
| Nc1ncc(-c2ccc3oc(=O)[nH]c3c2)c(N2CCC3(CC2)CNC(=O)O3)c1Cl [Compound 9, 8-[2-Amino-3-chloro-5-(2-oxo-2,3-dihydro-benzooxazol-5-yl)-pyridin-4-yl]-1-oxa-3,8-diaza-spiro[4.5] decan-2-one] | 10 to 50 | 98 |
| CN1C(=O)CCc2cc(-c3cnc(N)c(Cl)c3N3CCC4(CCNC4=O)CC3)ccc21 [Compound 14, 6-[6-Amino-5-chloro-4-(1-oxo-2,8-diaza-spiro[4.5]dec-8-yl)-pyridin-3-yl]-1-methyl-3,4-dihydro-1H-quinolin-2-one] | 10 to 50 | 40 |
| CN1C(=O)Cc2cc(-c3cnc(N)c(Cl)c3N3CCC4(CCNC4=O)CC3)ccc21 [Compound 15, 8-[2-Amino-3-chloro-5-(1-methyl-2-oxo-2,3-dihydro-1H-indol-5-yl)-pyridin-4-yl]-2,8-diaza-spiro[4.5] decan-1-one] | 10 to 50 | 54 |
| Nc1ncc(-c2ccc3[nH]ncc3c2)c(N2CCC3(CCNC3=O)CC2)c1Cl [Compound 35, 8-[2-Amino-3-chloro-5-(1H-indazol-5-yl)-pyridin-4-yl]-2,8-diaza-spiro[4.5] decan-1-one] | – | 85 |
| CN1C(=O)Cc2cc(-c3cnc(N)c(Cl)c3N3CCC4(CC3)CNC(=O)O4)ccc21 [Compound 36, 8-[2-Amino-3-chloro-5-(1-methyl-2-oxo-2,3-dihydro-1H-indol-5-yl)-pyridin-4-yl]-1-oxa-3,8-diaza-spiro[4.5] decan-2-one] | – | > 300 |
| Nc1ncc(-c2ccc3c(N)n[nH]c3c2)c(N2CCC3(CC2)CNC(=O)O3)c1Cl [Compound 37, 8-[2-Amino-5-(3-amino-1H-indazol-6-yl)-3-chloro-pyridin-4-yl]-1-oxa-3,8-diaza-spiro[4.5] decan-2-one] | – | 2300 |
| Nc1ncc(-c2ccc(-c3cnn(CCO)c3)cc2)c(N2CCC3(CC2)NCCNC3=O)c1Cl [Compound 45, 9-(2-Amino-3-chloro-5-{4-[1-(2-hydroxy-ethyl)-1H-pyrazol-4-yl]-phenyl}-pyridin-4-yl)-1,4,9-triaza-spiro[5.5] undecan-5-one] | – | 560 |
| Cn1cc(-c2ccc(-c3cnc(N)c(C(F)(F)F)c3N3CCC(C(N)=O)CC3)cc2)cn1 [Compound 48, 2′-Amino-5′-[4-(1-methyl-1H-pyrazol-4-yl)-phenyl]-3′-trifluoro-methyl-3,4,5,6-tetrahydro-2H-[1,4′] bipyridinyl-4-carboxylic acid amide] | – | 160 |

Compounds with a lower IC50 (Wnt pathway), results first:

| microsomal CLint at 0.8 μM [1] [µL/min/mg] | IC50 (Wnt pathway) [nM] | SMILES |
| --- | --- | --- |
| 10 to 50 | 28.6 | CN1c2ccc(-c3cnc(N)c(Cl)c3N3CC[C@H](C#N)[C@@H](O)C3)cc2CS1(=O)=O (racemic) [Compound 57, Racemic trans-2′-amino-3′-chloro-3-hydroxy-5′-(1-methyl-2,2-dioxo-2,3-dihydro-1H-2l6-benzo[c]isothiazol-5-yl)-3,4,5,6-tetrahydro-2H-[1,4′]bipyridinyl-4-carbonitrile] |
| < 10 | 31 | Cn1cc(-c2ccc(-c3cnc(N)c(Cl)c3N3CCC4(CC3)NC(=O)NC4=O)cc2)cn1 [Compound 2, 8-{2-Amino-3-chloro-5-[4-(1-methyl-1H-pyrazol-4-yl)-phenyl]-pyridin-4-yl}-1,3,8-triaza-spiro[4.5] decane-2,4-dione] |
| < 10 | 38 | CN1c2ccc(-c3cnc(N)c(Cl)c3N3CCC4(CC3)CNC(=O)O4)cc2CS1(=O)=O [Compound 4, 8-[2-Amino-3-chloro-5-(1-methyl-2,2-dioxo-2,3-dihydro-1H-2I6-benzo[c]isothiazol-5-yl)-pyridin-4-yl]-1-oxa-3,8-diaza-spiro[4.5] decan-2-one] |
| < 10 | 29 | Cn1ncc2cc(-c3cnc(N)c(Cl)c3N3CCC4(CC3)NC(=O)NC4=O)ccc21 [Compound 8, 8-[2-Amino-3-chloro-5-(1-methyl-1H-indazol-5-yl)-pyridin-4-yl]-1,3,8-triaza-spiro[4.5] decane-2,4-dione] |
| 10 to 50 | 36 | Cn1cc(-c2ccc(-c3cnc(N)c(Cl)c3N3CCC4(CC3)CNC(=O)O4)cc2)cn1 [Compound 10, 8-{2-Amino-3-chloro-5-[4-(1-methyl-1H-pyrazol-4-yl)-phenyl]-pyridin-4-yl}-1-oxa-3,8-diaza-spiro[4.5] decan-2-one] |
| 10 to 50 | 3 | Cn1cc(-c2ccc(-c3cnc(N)c(Cl)c3N3CCC4(CC3)C(=O)Nc3ccccc34)cc2)cn1 [Compound 11, 1′-(2-Amino-3-chloro-5-(4-(1-methyl-1H-pyrazol-4-yl)phenyl)pyridin-4-yl)spiro[indoline-3,4′-piperidin]-2-one] |
| 10 to 50 | 31 | Nc1ncc(-c2ccc3c(N)n[nH]c3c2)c(N2CCC3(CC2)CC(=O)NC3=O)c1Cl [Compound 12, 8-[2-Amino-5-(3-amino-1H-indazol-6-yl)-3-chloro-pyridin-4-yl]-2,8-diaza-spiro[4.5] decane-1,3-dione] |
| < 10 | 14 | Nc1ncc(-c2ccc3c(c2)CCC(=O)N3)c(N2CCC3(CC2)CC(=O)NC3=O)c1Cl [Compound 13, 8-[2-Amino-3-chloro-5-(2-oxo-1,2,3,4-tetrahydro-quinolin-6-yl)-pyridin-4-yl]-2,8-diaza-spiro[4.5] decane-1,3-dione] |
| – | 2 | Cn1cc(-c2ccc(-c3cnc(N)c(Cl)c3N3CCC4(CC3)CC(=O)NC4=O)cc2)cn1 [Compound 38, 8-(2-Amino-3-chloro-5-(4-(1-methyl-1H-pyrazol-4-yl)phenyl)pyridin-4-yl)-2,8-diazaspiro[4.5]decane-1,3-dione] |
